Experimental findings from patent US20170204092A1, “4,5-DIHYDROISOXAZOLE DERIVATIVES AS NAMPT INHIBITORS” (AURIGENE DISCOVERY TECHNOLOGIES LIMITED, priority 2014, published 2017) are described below.

Where two headings read alike, the source gives them in different places.

The target in data set [1] is T1, recombinant NAMPT wild type protein (Homo sapiens, UniProt P43490).
T1 construct: made in house; host or cells: E. coli
Briefly: NAMPT fluorescence assay. To be noted: 50 ng NAMPT, 2 μM Nam, 10 point dose response; read-out: Fluorescence assay IC50 in range. In kind it is biochemical. The method, then:
The enzymatic assay was standardized using in-house recombinant NAMPT wild type protein from E. coli expression & NAM (Cat #47865-U) as a substrate. The product NMN formed after enzymatic reaction was derivatized to a fluorescent derivative through sequentially reacting with acetophenone/KOH and formic acid. The derivatized fluorescent NMN derivative was detected at 382 nm excitation wavelength and a 445 nm emission wavelength. […] The fluorescence was measured (Excitation at 382 nm & Emission at 445 nm) using Victor^3 V fluorimeter. The data is calculated using the RFU values. The final concentration of DMSO was 2% in the assay. Each individual IC50 was determined using 10 point dose response curve generated by GraphPad Prism software Version 4 (San Diego, Calif., USA) using nonlinear regression curve fit for sigmoidal dose response (variable slope).

Another data set relates to MiaPaCa-2 cells. The experiment in a line: Cytotoxicity assay in MiaPaCa-2 (XTT, 72 h). It counts as cell-based. To be noted: for IC50: XTT, read-out: Cell cytotoxicity assay IC50 in range; for inhibition at 1 µM / inhibition at 10 µM / Cell cytotoxicity assay (% Inhibition at 1 μM) / Cell cytotoxicity assay (% Inhibition at 10 μM): DMSO control = 0% inhibition; for inhibition at 1 µM: read-out: Cell cytotoxicity assay (% Inhibition at 1 μM); for inhibition at 10 µM: read-out: Cell cytotoxicity assay (% Inhibition at 10 μM). The method, then:
MiaPaCa-2 Cells (ATCC) were seeded in 96 well plates (Costar clear flat bottom) at a density of 3000 cells/well and allowed to settle overnight. Test compounds were dissolved in dimethyl sulphoxide (DMSO-Sigma Aldrich, D2650) and incubated with MiaPaCa-2 cells for 72 h. Post 72 h, 50 μl XTT (1 mg/mL; Invitrogen, X 6493) and PMS ([…]; Sigma Aldrich, P9625) reagents were added to the cells in 100 μl of cDMEM (Sigma Aldrich-D5648)+10% FBS (Hyclone-5430088-03)+1×Pen Strep (Sigma Aldrich-P0781). After 1 hour incubation with XTT and PMS absorbance was monitored with Spectramax M3 (Molecular Device). Percentage inhibition of proliferation at 10 μM and 1 μM concentrations was calculated by considering DMSO control as 0% inhibition. IC50 values were plotted using Graph pad prism software (Graph pad Inc, La Jola, Calif., USA).
(Tetrazolium dyes change colour on reduction, which living cells bring about.)

T1 sequence (P43490 whole entry): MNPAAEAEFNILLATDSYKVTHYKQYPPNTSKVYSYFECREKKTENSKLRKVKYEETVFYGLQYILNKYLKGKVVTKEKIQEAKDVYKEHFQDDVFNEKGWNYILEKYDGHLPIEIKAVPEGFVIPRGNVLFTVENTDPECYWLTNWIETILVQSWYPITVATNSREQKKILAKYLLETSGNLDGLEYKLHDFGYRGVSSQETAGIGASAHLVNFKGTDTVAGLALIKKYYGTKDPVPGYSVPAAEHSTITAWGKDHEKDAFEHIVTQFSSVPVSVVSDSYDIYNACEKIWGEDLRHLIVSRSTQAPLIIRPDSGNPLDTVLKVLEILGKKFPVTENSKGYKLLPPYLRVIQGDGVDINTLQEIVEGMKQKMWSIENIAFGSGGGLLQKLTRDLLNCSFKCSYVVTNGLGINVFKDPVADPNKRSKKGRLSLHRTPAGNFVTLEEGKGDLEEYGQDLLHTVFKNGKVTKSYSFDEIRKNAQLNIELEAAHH

As to `Cn1cc(-c2cccnc2OCC2CC(CNC(=O)c3ccc4nccn4c3)=NO2)cn1` (racemic) [Example 1, N-((5-(((3-(1-methyl-1H-pyrazol-4-yl)pyridin-2-yl)oxy)methyl)-4,5-dihydroisoxazol-3-yl)methyl)imidazo[1,2-a]pyridine-6-carboxamide], the IC50 (as a rule, the concentration that gives 50% inhibition) in data set [1] was < 0.01 µM; with MiaPaCa-2 cells (Homo sapiens, MIA PaCa-2, 72 h), > 0.25 µM.
For the compound `O=C(NCC1=NOC(COc2ncccc2-c2ccc(F)nc2)C1)c1ccc2nccn2c1` (racemic) [Example 2, N-((5-(((6′-fluoro-[3,3′-bipyridin]-2-yl)oxy)methyl)-4,5-dihydroisoxazol-3-yl)methyl)-imidazo[1,2-a]pyridine-6-carboxamide], in data set [1], the IC50 was < 0.01 µM. Further, in the data set with MiaPaCa-2 cells (Homo sapiens, MIA PaCa-2, 72 h), the inhibition (as a rule, the relative decrease from the control value, in per cent) at 1 µM is 95%; the inhibition at 10 µM is 97%; the IC50 lay within 0.05 to 0.25 µM.
Turning to `O=C(NCC1=NOC(COc2ccncc2-c2ccc(F)nc2)C1)c1ccc2nccn2c1` (racemic) [Example 3, N-((5-(((6′-fluoro-[3,3′-bipyridin]-4-yl)oxy)methyl)-4,5-dihydroisoxazol-3-yl)methyl)-imidazo[1,2-a]pyridine-6-carboxamide], in the data set with MiaPaCa-2 cells (Homo sapiens, MIA PaCa-2, 72 h), the inhibition at 1 µM was determined as 5%, the inhibition at 10 µM turned out to be 80% and the IC50 was > 0.25 µM.
For the compound `O=C(NCC1=NOC(COc2cccnc2-c2ccc(F)nc2)C1)c1ccc2nccn2c1` (racemic) [Example 4, N-((5-(((6′-fluoro-[2,3′-bipyridin]-3-yl)oxy)methyl)-4,5-dihydroisoxazol-3-yl)methyl)imidazo[1,2-a]pyridine-6-carboxamide], the IC50 in data set [1] is < 0.01 µM. In addition, in the data set on MiaPaCa-2 cells (Homo sapiens, MIA PaCa-2, 72 h), the inhibition at 1 µM came out at 96%, the inhibition at 10 µM was 96% and the IC50 was < 0.05 µM.
Consider `Cn1cc(-c2ncccc2OCC2CC(CNC(=O)c3ccc4nccn4c3)=NO2)cn1` (racemic) [Example 5, N-((5-(((2-(1-methyl-1H-pyrazol-4-yl)pyridin-3-yl)oxy)methyl)-4,5-dihydroisoxazol-3-yl)methyl)imidazo[1,2-a]pyridine-6-carboxamide], for which the IC50 in data set [1] is < 0.01 µM. For the same compound, in the data set with MiaPaCa-2 cells (Homo sapiens, MIA PaCa-2, 72 h), the inhibition at 1 µM is 47%, the inhibition at 10 µM turned out to be 95% and the IC50 lay within 0.05 to 0.25 µM.
The corresponding values for `CNC(=O)c1ccc(-c2ncccc2OCC2CC(CNC(=O)c3ccc4nccn4c3)=NO2)cc1F` (racemic) [Example 6, N-((5-(((2-(3-fluoro-4-(methylcarbamoyl)phenyl)pyridin-3-yl)oxy)methyl)-4,5-dihydroisoxazol-3-yl)methyl)imidazo[1,2-a]pyridine-6-carboxamide] are > 0.025 µM, 15%, 80% and > 0.25 µM.
For `O=C(NCC1=NOC(COc2cccnc2-c2cccnc2)C1)c1ccc2nccn2c1` (racemic) [Example 7, N-((5-(([2,3′-bipyridin]-3-yloxy)methyl)-4,5-dihydroisoxazol-3-yl)methyl)-imidazo[1,2-a]pyridine-6-carboxamide], in that order: 0.01 to 0.025 µM, 90%, 90% and 0.05 to 0.25 µM.
For `O=C(NCC1=NOC(COc2cccnc2-c2ccc(Cl)nc2)C1)c1ccc2nccn2c1` (racemic) [Example 8, N-((5-(((6′-chloro-[2,3′-bipyridin]-3-yl)oxy)methyl)-4,5-dihydroisoxazol-3-yl)methyl)imidazo[1,2-a]pyridine-6-carboxamide], the IC50 in data set [1] is 0.01 to 0.025 µM; with MiaPaCa-2 cells (Homo sapiens, MIA PaCa-2, 72 h) it was < 0.05 µM.
Take `O=C(NCC1=NOC(COc2cc(F)cnc2-c2ccc(F)nc2)C1)c1ccc2nccn2c1` (racemic) [Example 9, N-((5-(((5,6′-difluoro-[2,3′-bipyridin]-3-yl)oxy)methyl)-4,5-dihydroisoxazol-3-yl)methyl)imidazo[1,2-a]pyridine-6-carboxamide]: the concentration for half-maximal inhibition (IC50) in data set [1] fell in the range of 0.01 to 0.025 µM. In the data set on MiaPaCa-2 cells (Homo sapiens, MIA PaCa-2, 72 h), the inhibition at 1 µM was determined as 88%, the inhibition at 10 µM worked out at 89% and the half-maximal inhibitory concentration (IC50) was < 0.05 µM.
The corresponding values for `N#Cc1ccc(OCC2CC(CNC(=O)c3ccc4nccn4c3)=NO2)c(-c2ccc(F)nc2)n1` (racemic) [Example 10, N-((5-(((6-cyano-6′-fluoro-[2,3′-bipyridin]-3-yl)oxy)methyl)-4,5-dihydroisoxazol-3-yl)methyl)imidazo[1,2-a]pyridine-6-carboxamide] are 0.01 to 0.025 µM, 95%, 95% and 0.05 to 0.25 µM.
The corresponding values for `Cc1cnc(-c2ccc(F)nc2)c(OCC2CC(CNC(=O)c3ccc4nccn4c3)=NO2)c1` (racemic) [Example 11, N-((5-(((6′-fluoro-5-methyl-[2,3′-bipyridin]-3-yl)oxy)methyl)-4,5-dihydroisoxazol-3-yl)methyl)imidazo[1,2-a]pyridine-6-carboxamide] are 0.01 to 0.025 µM, 96%, 95% and < 0.05 µM.
With `O=C(NCC1=NOC(COc2cc(F)cnc2-c2cccnc2)C1)c1ccc2nccn2c1` (racemic) [Example 15, N-((5-(((5-fluoro-[2,3′-bipyridin]-3-yl)oxy)methyl)-4,5-dihydroisoxazol-3-yl)methyl)imidazo[1,2-a]pyridine-6-carboxamide], in the data set on MiaPaCa-2 cells (Homo sapiens, MIA PaCa-2, 72 h), the inhibition at 1 µM was 99%, the inhibition at 10 µM was 99% and the IC50 was 0.05 to 0.25 µM.
Turning to `O=C(NCC1=NOC(COc2cccnc2-c2cccnc2)C1)c1ccc2nccn2c1` (single isomer, unassigned) [Example 7b, N-((5-(([2,3′-bipyridin]-3-yloxy)methyl)-4,5-dihydroisoxazol-3-yl)methyl)-imidazo[1,2-a]pyridine-6-carboxamide], the half-maximal inhibitory concentration (IC50) in the data set on MiaPaCa-2 cells is > 0.25 µM.
As for `O=C(NCC1=NOC(COc2cccnc2-c2ccc(Cl)nc2)C1)c1ccc2nccn2c1` (single isomer, unassigned) [Example 8a, N-((5-(((6′-chloro-[2,3′-bipyridin]-3-yl)oxy)methyl)-4,5-dihydroisoxazol-3-yl)methyl)imidazo[1,2-a]pyridine-6-carboxamide], in the data set with MiaPaCa-2 cells, the “Cell cytotoxicity assay (% Inhibition at 1 μM)” value is reported as 10%, the “Cell cytotoxicity assay (% Inhibition at 10 μM)” value came to 10% and the IC50 was > 10 µM.
Consider `N#Cc1ccc(OCC2CC(CNC(=O)c3ccc4nccn4c3)=NO2)c(-c2ccc(F)nc2)n1` (single isomer, unassigned) [Example 10a, N-((5-(((6-cyano-6′-fluoro-[2,3′-bipyridin]-3-yl)oxy)methyl)-4,5-dihydroisoxazol-3-yl)methyl)imidazo[1,2-a]pyridine-6-carboxamide], for which, in the data set with MiaPaCa-2 cells (Homo sapiens, MIA PaCa-2, 72 h), the inhibition at 1 µM was 100%, the inhibition at 10 µM was 100% and the IC50 is < 0.05 µM.
With `N#Cc1ccc(OCC2CC(CNC(=O)c3ccc4nccn4c3)=NO2)c(-c2ccc(F)nc2)n1` (single isomer, unassigned) [Example 10b, N-((5-(((6-cyano-6′-fluoro-[2,3′-bipyridin]-3-yl)oxy)methyl)-4,5-dihydroisoxazol-3-yl)methyl)imidazo[1,2-a]pyridine-6-carboxamide], in the data set with MiaPaCa-2 cells, the “Cell cytotoxicity assay (% Inhibition at 1 μM)” value is reported as 100% and the “Cell cytotoxicity assay (% Inhibition at 10 μM)” value stood at 100%.
As for `O=C(NCC1=NOC(COc2cc(Cl)cnc2-c2ccc(F)nc2)C1)c1ccc2nccn2c1` (single isomer, unassigned) [Example 14a, N-((5-(((5-chloro-6′-fluoro-[2,3′-bipyridin]-3-yl)oxy)methyl)-4,5-dihydroisoxazol-3-yl)methyl)imidazo[1,2-a]pyridine-6-carboxamide], in the data set with MiaPaCa-2 cells (Homo sapiens, MIA PaCa-2, 72 h), the inhibition at 1 µM stood at 93% and the inhibition at 10 µM stood at 98%. Besides, the IC50 with MiaPaCa-2 cells was > 0.25 µM.
In the case of `O=C(NCC1=NOC(COc2cc(Cl)cnc2-c2ccc(F)nc2)C1)c1ccc2nccn2c1` (single isomer, unassigned) [Example 14b, N-((5-(((5-chloro-6′-fluoro-[2,3′-bipyridin]-3-yl)oxy)methyl)-4,5-dihydroisoxazol-3-yl)methyl)imidazo[1,2-a]pyridine-6-carboxamide], in the data set with MiaPaCa-2 cells, the “Cell cytotoxicity assay (% Inhibition at 1 μM)” value came to 100%, the “Cell cytotoxicity assay (% Inhibition at 10 μM)” value worked out at 98% and the IC50 is < 0.05 µM.
